Experiments:
K. pneumoniae/KPC lysate = assay: Bioluminescence with bacterial lysate compared to intact bacteria, K. pneumoniae/KPC; conditions: CHAPS lysis
Protocol: (§1) To evaluate whether releasing β-lactamases from periplasm could improve detection sensitivity, the bacteria were lysed.
(§2) Two clinically significant isolates K. pneumoniae expressing KPC carbapenemase (K. pneumoniae/KPC) and E. coli expressing New Delhi metallo β-lactamase (E. coli/NDM) were evaluated.
(§3) Bacteria was mixed with 0.5% CHAPS lysis buffer for 15 min, and then incubated with D-Bluco at room temperature for another 15 min. The resulted mixture was combined with assay buffer which contains MgCl2, CoA, ATP, and luciferase for immediate bioluminescent reading.

E. coli/NDM lysate = assay: Bioluminescence with bacterial lysate compared to intact bacteria, E. coli/NDM; conditions: CHAPS lysis
Protocol: as §1, §2, §3

S. marcescens (SME) = assay: Clinical isolate spiked in synthetic urine, filtered and centrifuged, S. marcescens (SME); assay type: cell-based; conditions: 10 μM D-Bluco, an hour at 37° C., PBS pH 7.4
Protocol: FIGS. 11A-11C illustrate detection of clinical isolates spiked in urine with D-Bluco a) Workflow for clinical sample detection b) Bioluminescent response for different concentrations of S. marcescens (SME) or c) E. coli/OXA-48 spiked into synthetic urine samples following the incubation with D-Bluco (10 μM) at 37° C. for an hour. Bioluminescent signal was measured and compared to that of E. coli (10^6 c.f.u/mL).
Urinary tract infection (UTI) is a severe public health problem because of the high recurrence rates and increasing antimicrobial resistance. It is among the major cause of patient morbidity and health care expenditures for both men and women of all age groups, accounting for 1 million cases of nosocomial in USA annually and an estimate cost of 1.6 billion. As a proof-of-concept, we spiked different concentrations of clinic isolates into synthetic urine samples. E. coli expressing OXA-48 and S. marcescens (SME) were chosen as examples. S. marcescens, being an opportunistic pathogen, accounts for an average of 6.5% of all Gram negative infection in intensive Care Units. The spiked urine samples were filtered and centrifuged to collect the bacteria (FIG. 11A). The collected bacteria were then diluted in PBS (pH=7.4) and incubated with 10 μM D-Bluco for an hour at 37° C.

firefly luciferase = biological target: T1, firefly luciferase (Photinus pyralis, UniProt P08659); assay: Background bioluminescence and oxidation of pro-luciferin probes on repeated addition of firefly luciferase; assay type: biochemical
T1 construct: purchased Promega E1701
Protocol: The initial bioluminescent background signal may come from residual D-luciferin present in the sample. High-performance liquid chromatography (HPLC) analysis could not detect any D-luciferin at a concentration below 0.1 μM. However, addition of firefly luciferase can efficiently detect and consume the residual free D-luciferin.
To further confirm the quenching effect of dabcyl in D-Bluco, another control, Am-Bluco, was prepared that is structurally similar to D-Bluco but with dabcyl replaced by a structure lacking the broad absorption between 400 and 530 nm (FIG. 1).

E. coli/TEM = assay: Inhibitor test with E. coli/TEM and D-Bluco; conditions: D-Bluco 10 μM, no inhibitor
TEM-1 = TEM-1 (Escherichia coli, UniProt P62593); assay: Fluorescence turn-on of caged luciferin probes with recombinant TEM-1 bla; assay type: biochemical; parameters: made in house
Protocol: D-Bluco was evaluated as to whether it could be processed by β-lactamase to release luciferin with one of the most prevalent Ambler class A β-lactamases, TEM-1.
Both probes were evaluated to with TEM-1 bla, one of the most abundant β-Lactamases for initial testing. The fluorescent signal of D-Bluco and O-Bluco incubated with 100 nM TEM-1 bla was examined with a microplate reader over a period of 40 minutes.
General information: All chemicals were purchased from commercial sources and used without further purification. […] QuantiLum Recombinant luciferase (catalog number E1701) was purchased from Promega (Madison, WI). Reaction progress was monitored by analytical thin layer chromatography (TLC) with 0.25 mm silica gel 60F plates and visualized with fluorescent indicator (254 nm). Flash column chromatography was conducted using silica gel (SiliaFlash for flash column, 40-63 μm, 60 Å). The ^1H and ^13C NMR spectra were acquired on a Varian 500 MHz or 600 MHz magnetic resonance spectrometer. Data for ^1H NMR spectra are reported as follows: chemical shifts are reported as δ in units of parts per million (ppm) relative to chloroform-d (δ 7.26, s); multiplicities are reported as follows: s (singlet), d (doublet), t (triplet), q (quartet), dd (doublet of doublets), m (multiplet), or br (broadened); coupling constants are reported as a J value in Hertz (Hz); and the number of protons (n) for a given resonance is indicated nH and based on the spectral integration values. High resolution mass spectra were obtained on a Thermo Exactive Orbitrap LC/MS. HPLC was performed on a Dionex HPLC System (Dionex Corporation) equipped with a GP50 gradient pump and an inline diode array UV-Vis detector. A reversed-phase C18 (Phenomenax, 5 μm, 10×250 mm or Dionex, 5 μm, 4.6×250 mm) column was used with a MeCN (B)/H2O (A) gradient mobile phase containing 0.1% trifluoroacetic acid at a flow of 1 or 3 mL/min for the analysis. Fluorescence Spectra and kinetic experiments were collected by a SpectraMax iD3 multimode microplate reader (Molecular Device, San Jose, CA).

Chain of TEM-1 (P62593 24-286 limits assumed): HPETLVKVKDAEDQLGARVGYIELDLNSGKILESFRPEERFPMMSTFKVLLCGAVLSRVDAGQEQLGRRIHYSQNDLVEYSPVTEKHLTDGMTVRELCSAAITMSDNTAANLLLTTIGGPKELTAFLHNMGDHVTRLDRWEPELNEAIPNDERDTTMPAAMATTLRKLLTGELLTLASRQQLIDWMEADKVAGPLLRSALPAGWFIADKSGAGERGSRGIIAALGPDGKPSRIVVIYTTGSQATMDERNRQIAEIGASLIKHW
T1 sequence (P08659 whole entry): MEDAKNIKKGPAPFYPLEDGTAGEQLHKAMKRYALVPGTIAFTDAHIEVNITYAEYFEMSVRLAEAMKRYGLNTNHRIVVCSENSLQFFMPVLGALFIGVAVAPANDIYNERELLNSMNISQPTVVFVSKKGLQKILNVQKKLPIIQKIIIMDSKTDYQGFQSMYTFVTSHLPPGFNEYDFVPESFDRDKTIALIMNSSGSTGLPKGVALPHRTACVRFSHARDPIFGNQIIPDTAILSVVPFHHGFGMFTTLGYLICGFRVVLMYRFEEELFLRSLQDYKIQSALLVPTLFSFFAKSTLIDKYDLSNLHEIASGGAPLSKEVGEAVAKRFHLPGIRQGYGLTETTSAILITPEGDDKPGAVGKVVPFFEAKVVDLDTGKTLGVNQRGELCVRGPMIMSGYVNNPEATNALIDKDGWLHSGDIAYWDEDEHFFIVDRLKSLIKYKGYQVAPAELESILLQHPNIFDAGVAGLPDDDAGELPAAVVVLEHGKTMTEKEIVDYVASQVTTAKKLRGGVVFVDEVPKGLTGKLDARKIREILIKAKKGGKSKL

CN(C)c1ccc(/N=N/c2ccc(C(=O)NCCCCCC(=O)NC3C(=O)N4C(C(=O)O)=C(COc5ccc6nc(C7=N[C@@H](C(=O)O)CS7)sc6c5)C[S+]([O-])C34)cc2)cc1 (stereo partly drawn) [D-Bluco, 3-(((2-((S)-4-carboxy-4,5-dihydrothiazol-2-yl)benzo[d]thiazol-6-yl)oxy)methyl)-7-(6-(4-((E)-(4-(dimethylamino)phenyl)diazenyl)benzamido)hexanamido)-8-oxo-5-thia-1-azabicyclo[4.2.0]oct-2-ene-2-carboxylic acid 5-oxide]
signal enhancement with lysate compared to intact bacteria (K. pneumoniae/KPC lysate): 141 fold
signal enhancement with lysate compared to intact bacteria (E. coli/NDM lysate): 145 fold
concentration from which significant bioluminescence enhancement is seen (S. marcescens (SME)): 10^4 c.f.u/mL
oxidation of probe incubated with firefly luciferase (mass spectrometry) (firefly luciferase; incubated with firefly luciferase): oxidized
bioluminescence emission on additional batches of firefly luciferase (firefly luciferase; repeated firefly luciferase addition, no β-lactamase): no further bioluminescence emission was detected
increase of bioluminescent intensity of E. coli/TEM-1 treated with probe over PBS (E. coli/TEM): 260 fold
fold increase in fluorescence emission in the presence of TEM-1 (TEM-1; 1 μM probe, TEM-1 100 nM, 40 min, PBS pH 7.4, r.t., excitation 330 nm, emission 530 nm): 37.6 fold
time of rapid fluorescence intensity increase before plateau (TEM-1; TEM-1 bla 100 nM, monitored over 40 minutes): ≤ 10 min
fluorescence emission in the absence of TEM-1 (TEM-1; without TEM-1, excitation 330 nm, emission 530 nm): little emission
